# Test: Inhibitory activity was determined against Neuraminidase A from influenza virus A/Tokyo/3/67
row,Structure (SMILES),IC50 [µM]
1,CC(C)N(C(=O)N1C[C@H](C(=O)O)[C@H](N=C(N)N)C1)C(C)C [1-Diisopropylcarbamoyl-4-guanidino-pyrrolidine-3-carboxylic acid],13
2,CCC(CC)C(=O)N1C[C@H](N)[C@H](C(=O)O)C1 [4-Amino-1-(2-ethyl-butyryl)-pyrrolidine-3-carboxylic acid],22
3,CCN(C(=O)N1C[C@H](N)[C@H](C(=O)O)C1)C(C)C [4-Amino-1-(ethyl-isopropyl-carbamoyl)-pyrrolidine-3-carboxylic acid],1.6
4,CC(C)N(CCO)C(=O)N1C[C@H](N)[C@H](C(=O)O)C1 [4-Amino-1-[(2-hydroxy-ethyl)-isopropyl-carbamoyl]-pyrrolidine-3-carboxylic acid],21
5,CC(C)N(CCCN)C(=O)N1C[C@H](N)[C@H](C(=O)O)C1 [4-Amino-1-[(3-amino-propyl)-isopropyl-carbamoyl]-pyrrolidine-3-carboxylic acid],46
6,CC(C)N(CCCC(=O)O)C(=O)N1C[C@H](N)[C@H](C(=O)O)C1 [4-Amino-1-[(3-carboxy-propyl)-isopropyl-carbamoyl]-pyrrolidine-3-carboxylic acid],19
7,CC(C)N(CCCO)C(=O)N1C[C@H](N)[C@H](C(=O)O)C1 [4-Amino-1-[(3-hydroxy-propyl)-isopropyl-carbamoyl]-pyrrolidine-3-carboxylic acid],2.1
8,CC(C)N(CCCCC(=O)O)C(=O)N1C[C@H](N)[C@H](C(=O)O)C1 [4-Amino-1-[(4-carboxy-butyl)-isopropyl-carbamoyl]-pyrrolidine-3-carboxylic acid],1.3
9,CC(C)N(CCCCCO)C(=O)N1C[C@H](N)[C@H](C(=O)O)C1 [4-Amino-1-[(5-hydroxy-pentyl)-isopropyl-carbamoyl]-pyrrolidine-3-carboxylic acid],2
10,CC(C)N(CCc1ccccn1)C(=O)N1C[C@H](N)[C@H](C(=O)O)C1 [4-Amino-1-[isopropyl-(2-pyridin-2-yl-ethyl)-carbamoyl]-pyrrolidine-3-carboxylic acid],1.3
11,CCN(CC)C(=O)N1C[C@H](N)[C@H](C(=O)O)C1 [4-Amino-1-diethylcarbamoyl-pyrrolidine-3-carboxylic acid],25
12,CC(C)N(C(=O)N1C[C@H](N)[C@H](C(=O)O)C1)C(C)C [4-Amino-1-diisopropylcarbamoyl-pyrrolidine-3-carboxylic acid],4
13,CCCN(CCC)C(=O)N1C[C@H](N)[C@H](C(=O)O)C1 [4-Amino-1-dipropylcarbamoyl-pyrrolidine-3-carboxylic acid],32
14,CCN(C(=O)N1C[C@@H](C(=O)O)[C@@H](N)[C@@H]1CNC(C)=O)C(C)C [5-(Acetylamino-methyl)-4-amino-1-(ethyl-isopropyl-carbamoyl)-pyrrolidine-3-carboxylic acid],7.5
15,CC(C)(C)OC(=O)N1C[C@@H](N)[C@@H](C(=O)O)C1 [A-87380],50
